Measured values as given in patent US10308645B2, “Piperidine oxadiazole and thiadiazole orexin receptor antagonists” (MERCK SHARP & DOHME CORP., priority 2014, dated 2019).

How the values were obtained:
[1] = biological target: human orexin-2 receptor (Homo sapiens (Human), UniProt O43614); experiment: FLIPR Ca2+ Flux Assay, hOX2R; type: cell-based; settings: CHO cells expressing the receptor; agonist Ala-6,12 human orexin-A
Experimental: The utility of the compounds in accordance with the present invention as orexin receptor OX1R and/or OX2R antagonists may be readily determined without undue experimentation by methodology well known in the art, including the “FLIPR Ca^2+ Flux Assay” (Okumura et al., Biochem. Biophys. Res. Comm. 280:976-981, 2001). In a typical experiment the OX1 and OX2 receptor antagonistic activity of the compounds of the present invention was determined in accordance with the following experimental method. For intracellular calcium measurements, Chinese hamster ovary (CHO) cells expressing the rat orexin-1 receptor or the human orexin-2 receptor, are grown in Iscove's modified DMEM containing 2 mM L-glutamine, […], 1% hypoxanthine-thymidine supplement, 100 U/ml penicillin, 100 μg/ml streptomycin and 10% heat-inactivated fetal calf serum (FCS). The cells are seeded at 20,000 cells/well into Becton-Dickinson black 384-well clear bottom sterile plates coated with poly-D-lysine. All reagents were from GIBCO-Invitrogen Corp. The seeded plates are incubated overnight at 37° C. and 5% CO2. Ala-6,12 human orexin-A as the agonist is prepared as a 1 mM stock solution in 1% bovine serum albumin (BSA) and diluted in assay buffer (HBSS containing 20 mM HEPES, 0.1% BSA and 2.5 mM probenecid, pH7.4) for use in the assay at a final concentration of 70 pM. Test compounds are prepared as 10 mM stock solution in DMSO, then diluted in 384-well plates, first in DMSO, then assay buffer. On the day of the assay, cells are washed 3 times with 100 μl assay buffer and then incubated for 60 min (37° C., 5% CO2) in 60 μl assay buffer containing 1 μM Fluo-4AM ester, 0.02% pluronic acid, and 1% BSA. The dye loading solution is then aspirated and cells are washed 3 times with 100 μl assay buffer. 30 μl of that same buffer is left in each well. Within the Fluorescent Imaging Plate Reader (FLIPR, Molecular Devices), test compounds are added to the plate in a volume of 25 μl, incubated for 5 min and finally 25 μl of agonist is added. Fluorescence is measured for each well at 1 second intervals for 5 minutes and the height of each fluorescence peak is compared to the height of the fluorescence peak induced by […] Ala-6,12 orexin-A with buffer in place of antagonist. For each antagonist, IC50 value (the concentration of compound needed to inhibit 50% of the agonist response) is determined. Alternatively, compound potency can be assessed by a radioligand binding assay (described in Bergman et. al. Bioorg. Med. Chem. Lett. 2008, 18, 1425-1430) in which the inhibition constant (Ki) is determined in membranes prepared from CHO cells expressing either the OX1 or OX2 receptor. The intrinsic orexin receptor antagonist activity of a compound which may be used in the present invention may be determined by these assays.

[2] = biological target: hOX1R (orexin-1 receptor) (Homo sapiens, UniProt O43613); experiment: FLIPR Ca2+ Flux Assay, hOX1R; type: cell-based; settings: CHO cells expressing the receptor; agonist Ala-6,12 human orexin-A

human orexin-2 receptor, sequence (O43614 whole entry): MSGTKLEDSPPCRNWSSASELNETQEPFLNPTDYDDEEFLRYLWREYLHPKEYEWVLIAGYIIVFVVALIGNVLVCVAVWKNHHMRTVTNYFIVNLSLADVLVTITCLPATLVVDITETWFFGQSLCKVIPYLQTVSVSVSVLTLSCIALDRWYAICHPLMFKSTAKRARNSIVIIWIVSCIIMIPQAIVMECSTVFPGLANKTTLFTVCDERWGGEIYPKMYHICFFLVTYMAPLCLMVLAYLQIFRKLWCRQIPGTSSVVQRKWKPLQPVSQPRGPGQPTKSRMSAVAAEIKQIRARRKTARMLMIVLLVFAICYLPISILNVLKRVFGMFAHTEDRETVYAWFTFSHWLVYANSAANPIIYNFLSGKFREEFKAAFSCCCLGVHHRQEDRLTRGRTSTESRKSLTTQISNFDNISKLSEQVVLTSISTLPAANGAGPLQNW

Structure (SMILES) | IC50 [1] [nM] | IC50 [2] [nM]
C[C@@H]1CC[C@@H](c2noc(C3CC3)n2)CN1C(=O)c1ccccc1-n1nccn1 [Example 1, (2R,5R)-5-(5-Cyclopropyl-1,2,4-oxadiazol-3-yl)-2-methyl-1-{[2-(2H-1,2,3-triazol-2-yl)phenyl]carbonyl}piperidine] | 329 | > 10000
C[C@@H]1CC[C@@H](c2noc(C(C)(C)C)n2)CN1C(=O)c1ccccc1-n1nccn1 [Example 2, (2R,5R)-5-(5-tert-butyl-1,2,4-oxadiazol-3-yl)-2-methyl-1-{[2-(2H-1,2,3-triazol-2-yl)phenyl]carbonyl}piperidine] | 29 | 516
CCc1nc([C@@H]2CC[C@@H](C)N(C(=O)c3ccccc3-n3nccn3)C2)no1 [Example 3, (2R,5R)-5-(5-ethyl-1,2,4-oxadiazol-3-yl)-2-methyl-1-{[2-(2H-1,2,3-triazol-2-yl)phenyl]carbonyl}piperidine] | 315 | > 10000
CC(C)c1nc([C@@H]2CC[C@@H](C)N(C(=O)c3ccccc3-n3nccn3)C2)no1 [Example 4, (2R,5R)-2-methyl-5-[5-(1-methylethyl)-1,2,4-oxadiazol-3-yl]-1-{[2-(2H-1,2,3-triazol-2-yl)phenyl]carbonyl}piperidine] | 28 | 699
C[C@@H]1CC[C@@H](c2noc(C(C)(C)O)n2)CN1C(=O)c1ccccc1-n1nccn1 [Example 5, 2-{3-[(3R,6R)-6-Methyl-1-{[2-(2H-1,2,3-triazol-2-yl)phenyl]carbonyl}piperidin-3-yl]-1,2,4-oxadiazol-5-yl}propan-2-ol] | 19 | 3180
C[C@@H]1CC[C@@H](c2noc([C@](C)(O)C(F)(F)F)n2)CN1C(=O)c1ccccc1-n1nccn1 [Example 6, (2S)-1,1,1-trifluoro-2-{3-[(3R,6R)-6-methyl-1-{[2-(2H-1,2,3-triazol-2-yl)phenyl]carbonyl}piperidin-3-yl]-1,2,4-oxadiazol-5-yl}propan-2-ol] | 18 | 288
C[C@@H]1CC[C@@H](c2noc([C@H](O)C(F)(F)F)n2)CN1C(=O)c1ccccc1-n1nccn1 [Example 7, (1S)-2,2,2-trifluoro-1-{3-[(3R,6R)-6-methyl-1-{[2-(2H-1,2,3-triazol-2-yl)phenyl]carbonyl}piperidin-3-yl]-1,2,4-oxadiazol-5-yl}ethanol] | 22 | 456
COC(C)(C)c1nc([C@@H]2CC[C@@H](C)N(C(=O)c3ccccc3-n3nccn3)C2)no1 [Example 8, (2R,5R)-5-[5-(1-Methoxy-1-methylethyl)-1,2,4-oxadiazol-3-yl]-2-methyl-1-{[2-(2H-1,2,3-triazol-2-yl)phenyl]carbonyl}piperidine] | 98 | 3700
C[C@@H]1CC[C@@H](c2noc([C@@H](O)C(F)(F)F)n2)CN1C(=O)c1ccccc1-n1nccn1 [Example 9, (1R)-2,2,2-Trifluoro-1-{3-[(3R,6R)-6-methyl-1-{[2-(2H-1,2,3-triazol-2-yl)phenyl]carbonyl}piperidin-3-yl]-1,2,4-oxadiazol-5-yl}ethanol] | 77 | 1010
C[C@@H]1CC[C@@H](c2noc([C@@](C)(O)C(F)(F)F)n2)CN1C(=O)c1ccccc1-n1nccn1 [Example 10, (2R)-1,1,1-Trifluoro-2-{3-[(3R,6R)-6-methyl-1-{[2-(2H-1,2,3-triazol-2-yl)phenyl]carbonyl}piperidin-3-yl]-1,2,4-oxadiazol-5-yl}propan-2-ol] | 97 | 2240
C[C@@H]1CC[C@@H](c2noc(C(C)(C)O)n2)CN1C(=O)c1ccccc1C1(C#N)CC1 [Example 11, 1-[2-({(2R,5R)-5-[5-(1-hydroxy-1-methylethyl)-1,2,4-oxadiazol-3-yl]-2-methylpiperidin-1-yl}carbonyl)phenyl]cyclopropanecarbonitrile] | 22 | 2290
C[C@@H]1CC[C@@H](c2noc(C(C)(C)O)n2)CN1C(=O)c1ccccc1-n1ncnn1 [Example 12, 2-{3-[(3R,6R)-6-methyl-1-{[2-(2H-tetrazol-2-yl)phenyl]carbonyl}piperidin-3-yl]-1,2,4-oxadiazol-5-yl}propan-2-ol] | 184 | > 10000
C[C@@H]1CC[C@@H](c2noc(C(C)(C)O)n2)CN1C(=O)c1ccsc1-n1nccn1 [Example 13, 2-{3-[(3R,6R)-6-methyl-1-{[2-(2H-1,2,3-triazol-2-yl)thiophen-3-yl]carbonyl}piperidin-3-yl]-1,2,4-oxadiazol-5-yl}propan-2-ol] | 39 | > 10000
C[C@@H]1CC[C@@H](c2noc(C(C)(C)O)n2)CN1C(=O)c1cscc1-n1nccn1 [Example 14, 2-{3-[(3R,6R)-6-methyl-1-{[4-(2H-1,2,3-triazol-2-yl)thiophen-3-yl]carbonyl}piperidin-3-yl]-1,2,4-oxadiazol-5-yl}propan-2-ol] | 48 | > 10000
C[C@@H]1CC[C@@H](c2noc(C(C)(C)O)n2)CN1C(=O)c1ccccc1OC(F)(F)F [Example 15, 2-{3-[(3R,6R)-6-methyl-1-{[2-(trifluoromethoxy)phenyl]carbonyl}piperidin-3-yl]-1,2,4-oxadiazol-5-yl}propan-2-ol] | 86 | > 10000
C[C@@H]1CC[C@@H](c2noc(C(C)(C)O)n2)CN1C(=O)c1cccnc1OCC(F)(F)F [Example 16, 2-{3-[(3R,6R)-6-methyl-1-{[2-(2,2,2-trifluoroethoxy)pyridin-3-yl]carbonyl}piperidin-3-yl]-1,2,4-oxadiazol-5-yl}propan-2-ol] | 87 | > 10000
CC(C)Oc1ncccc1C(=O)N1C[C@H](c2noc(C(C)(C)O)n2)CC[C@H]1C [Example 17, 2-{3-[(3R,6R)-6-methyl-1-{[2-(1-methylethoxy)pyridin-3-yl]carbonyl}piperidin-3-yl]-1,2,4-oxadiazol-5-yl}propan-2-ol] | 219 | > 10000
C[C@@H]1CC[C@@H](c2noc(C(C)(C)O)n2)CN1C(=O)c1ccccc1OC(F)F [Example 18, 2-{3-[(3R,6R)-1-{[2-(difluoromethoxy)phenyl]carbonyl}-6-methylpiperidin-3-yl]-1,2,4-oxadiazol-5-yl}propan-2-ol] | 140 | > 10000
CCOc1ccccc1C(=O)N1C[C@H](c2noc(C(C)(C)O)n2)CC[C@H]1C [Example 19, 2-(3-{(3R,6R)-1-[(2-ethoxyphenyl)carbonyl]-6-methylpiperidin-3-yl}-1,2,4-oxadiazol-5-yl)propan-2-ol] | 124 | > 10000
COC(=O)c1ccccc1C(=O)N1C[C@H](c2noc(C(C)(C)O)n2)CC[C@H]1C [Example 20, methyl 2-({(2R,5R)-5-[5-(1-hydroxy-1-methylethyl)-1,2,4-oxadiazol-3-yl]-2-methylpiperidin-1-yl}carbonyl)benzoate] | 97 | > 10000
C[C@@H]1CC[C@@H](c2nsc(C(C)(C)O)n2)CN1C(=O)c1cccnc1OCC(F)(F)F [Example 38, 2-{3-[(3R,6R)-6-methyl-1-{[2-(2,2,2-trifluoroethoxy)pyridin-3-yl]carbonyl}piperidin-3-yl]-1,2,4-thiadiazol-5-yl}propan-2-ol] | 124 | –
